The subject of series [1] is human non-small cell lung cancer (NCl-H1975) xenografts. In words: NCl-H1975 subcutaneous xenograft efficacy in nude mice. It counts as in vivo. To be noted: NCl-H1975, day 1 to day 14; Bevacizumab 25 mg/kg twice weekly i.p., BIBF 1120 50 mg/kg daily p.o., BI-1 13.6 mg/kg twice weekly i.p. The method, then:
The goal of the present study was to assess the efficacy of BI-1 in combination with Bevacizumab and BIBF 1120 in a model of human non small cell lung cancer (NCl-H1975) in nude mice.
• Model: Subcutaneous xenografts of the human non-small cell lung cancer (NCl-H1975) growing in nude mice
To establish subcutaneous tumors, NCl-H1975 cells were harvested by centrifugation, washed and resuspended in PBS+5% FCS at 5×10^7 cells/ml. 100 μl cell suspension containing 5×10^6 cells was then injected subcutaneously into the right flank of the mice (1 site per mouse). Mice were randomly distributed between the treatment and the vehicle control group (7 days after cell injection) when tumors were well established and had reached volumes of 63 to 104 mm3.
The doses of BI-1 and Bevacizumab were calculated to the average body weight of all mice on day 1 (28 g) and administered intraperitoneally twice weekly in a volume of 100 μl per mouse. BIBF 1120 was dosed according to the body weight (mg/kg) and administered daily perorally.
Tumor diameters were measured three times a week (Monday, Wednesday and Friday) with a caliper. The volume of each tumor [in mm3] was calculated according to the formula “tumor volume=length*diameter2*π/6.” To monitor side effects of treatment, mice were inspected daily for abnormalities and body weight was determined three times a week (Monday, Wednesday and Friday). […]

Series [2] has as its system CXF 243 colon cancer xenograft. As to the kind of experiment: CXF 243 patient-derived tumor xenograft efficacy in nude mice. It counts as in vivo, human. As to conditions: BI-1 13.6 mg/kg twice weekly i.p., BIBF1120 50 mg/kg once daily p.o., Bevacizumab 15 mg/kg twice weekly i.p. From the text:
(§1) The goal of the present study was to assess the efficacy of BI-1 in combination with Bevacizumab, BIBF1120 or Sunitinib in models of human non small cell lung cancer (LXFE 211, LXFE 1422), colon cancer (CXF 243), mammary cancer (MAXF 401), ovarian cancer (OVXF 1353), pancreatic cancer (PAXF 546) and renal cancer (RXF 1220) in nude mice. All models were patient-derived tumor xenografts (PDX), which were transplanted from patients to nude mice and passaged subcutaneously. These models retain most of the characteristics of the parental patient tumors including histology.
(§2) Tumor fragments were obtained from tumor xenografts in serial passage in nude mice. After removal from donor mice, tumors were cut into fragments (4-5 mm diameter) and placed in PBS until subcutaneous implantation. Recipient mice were anesthetized by inhalation of isoflurane. […] Mice were monitored daily. […]
(§3) The doses of BI-1 and Bevacizumab were calculated to the average body weight of all mice on day 1 (28 g) and administered intraperitoneally twice weekly in a volume of 100 μl per mouse. […]
(§4) Tumor diameters were measured twice weekly with a caliper. The volume of each tumor [in mm^3] was calculated according to the formula “tumor volume=length*diameter^2*0.5.” To monitor side effects of treatment, mice were inspected daily for abnormalities and body weight was determined twice weekly. […]
On the technique in general: In xenograft studies the graft and the host belong to different species.

Series [3] deals with LXFE 211 non small cell lung cancer xenograft. In words: LXFE 211 patient-derived tumor xenograft efficacy in nude mice. Format: in vivo, human. To be noted: BI-1 13.6 mg/kg twice weekly i.p., BIBF1120 50 mg/kg once daily p.o., Bevacizumab 15 mg/kg twice weekly i.p.
From the text: as §1, §2, §3, §4

Series [4] concerns LXFE 1422 non small cell lung cancer xenograft. As to the kind of experiment: LXFE 1422 patient-derived tumor xenograft efficacy in nude mice. It counts as in vivo, human. To be noted: BI-1 13.6 mg/kg twice weekly i.p., BIBF1120 50 mg/kg once daily p.o., Bevacizumab 15 mg/kg twice weekly i.p.
From the text: as §1, §2, §3, §4

Series [5] concerns MAXF 401 mammary cancer xenograft. As to the kind of experiment: MAXF 401 patient-derived tumor xenograft efficacy in nude mice. Format: in vivo, human. To be noted: BI-1 13.6 mg/kg twice weekly i.p., BIBF1120 50 mg/kg once daily p.o., Bevacizumab 15 mg/kg twice weekly i.p.
From the text: as §1, §2, §3, §4

The test system of series [6] is OVXF 1353 ovarian cancer xenograft. As to the kind of experiment: OVXF 1353 patient-derived tumor xenograft efficacy in nude mice. As to conditions: BI-1 13.6 mg/kg twice weekly i.p., BIBF1120 50 mg/kg once daily p.o., Bevacizumab 15 mg/kg twice weekly i.p. It counts as in vivo, human.
From the text: as §1, §2, §3, §4

Series [7] deals with PAXF 546 pancreatic cancer xenograft. As to the kind of experiment: PAXF 546 patient-derived tumor xenograft efficacy in nude mice. It counts as in vivo, human. As to conditions: BI-1 13.6 mg/kg twice weekly i.p., BIBF1120 50 mg/kg once daily p.o., Bevacizumab 15 mg/kg twice weekly i.p.
From the text: as §1, §2, §3, §4

Series [8] can be described thus: Body weight and deaths in PDX tumor-bearing nude mice. To be noted: mouse, in vivo. The method, then:
Mice were 5-7 week-old female Crl:NMRI-Foxn1^nu purchased from Charles River, Sulzfeld, Germany. After arrival, mice were allowed to adjust to ambient conditions for at least 5 days before they were used for the experiments. They were housed in individual ventilated Makrolon® type II long cages under standardized conditions at 25±1° C. temperatures and 55±10% humidity. Standardized diet (Teklad Global 19% Protein Extruded Diet (T.20195.12) from Harlan Laboratories) and sterile filtrated and acidified (pH 2.5) tap water were provided ad libitum. Ear clips were used to identify each mouse. Cage cards showing the study number, the animal identification number, the compound and dose level, the administration route as well as the schedule remained with the animals throughout the study.
Tumor diameters were measured twice weekly with a caliper. The volume of each tumor [in mm^3] was calculated according to the formula “tumor volume=length*diameter^2*0.5.” To monitor side effects of treatment, mice were inspected daily for abnormalities and body weight was determined twice weekly. Animals with tumor sizes exceeding 1.5 cm in diameter or 20% body weight loss were euthanized for ethical reasons.

Series [9] deals with RXF 1220 renal cancer xenograft. In words: RXF 1220 patient-derived tumor xenograft efficacy in nude mice. Format: in vivo, human. To be noted: BI-1 13.6 mg/kg twice weekly i.p., Sunitinib 40 mg/kg once daily, Bevacizumab 15 mg/kg twice weekly i.p.
From the text: as §1
Sunitinib (Sutent®, Pfizer) tablets were ground with mortar and pestle and 108.48 mg powder (corresponding to 32 mg API; correction factor: 3.39) were dissolved in PBS (pH 5).
Tumor fragments were obtained from tumor xenografts in serial passage in nude mice. […] Mice were monitored daily. […]
as §3, §4

Broadly, the TGI is the reduction of tumour growth relative to the control group.

For `COC(=O)c1ccc2c(c1)NC(=O)/C2=C(\Nc1ccc(N(C)C(=O)CN2CCN(C)CC2)cc1)c1ccccc1` [BIBF 1120], in series [1], the “median TGI (tumor growth inhibition)” value was 75%. Besides, the TGI is on record as 65% in series [2]; 40% in series [3]; 57% in [4]; 63% in series [5]; 78% in series [6]; 69% in series [7]. Moreover, the “maximum median body weight loss” value in series [8] is recorded as 5.9%.
As for `CCN(CC)CCNC(=O)c1c(C)[nH]c(/C=C2\C(=O)Nc3ccc(F)cc32)c1C` [Sunitinib], the TGI in series [9] came to 62%.
Bevacizumab: the “median TGI (tumor growth inhibition)” value in [1] worked out at 82%. In addition, the TGI in [3] stood at 37%; in series [4] it was 63%; in series [5], 68%; in [7] it was 59%. For the same compound, the “maximum median body weight loss” value in series [8] worked out at 9.1%.

The record behind these values is patent US20140093499A1, “PHARMACEUTICAL COMBINATIONS COMPRISING DUAL ANGIOPOIETIN-2 / DLL4 BINDERS AND ANTI-VEGF AGENTS” (BOEHRINGER INGELHEIM INTERNATIONAL GMBH, priority 2012, published 2014).
